Data reported in patent publication US20180155344A1, “TRICYCLIC PIPERIDINE COMPOUNDS” (ACTELION PHARMACEUTICALS LTD, priority 2015, published 2018).

Target: T1, human TPH1 (Homo sapiens, UniProt P17752)
T1 sequence (P17752 1-444): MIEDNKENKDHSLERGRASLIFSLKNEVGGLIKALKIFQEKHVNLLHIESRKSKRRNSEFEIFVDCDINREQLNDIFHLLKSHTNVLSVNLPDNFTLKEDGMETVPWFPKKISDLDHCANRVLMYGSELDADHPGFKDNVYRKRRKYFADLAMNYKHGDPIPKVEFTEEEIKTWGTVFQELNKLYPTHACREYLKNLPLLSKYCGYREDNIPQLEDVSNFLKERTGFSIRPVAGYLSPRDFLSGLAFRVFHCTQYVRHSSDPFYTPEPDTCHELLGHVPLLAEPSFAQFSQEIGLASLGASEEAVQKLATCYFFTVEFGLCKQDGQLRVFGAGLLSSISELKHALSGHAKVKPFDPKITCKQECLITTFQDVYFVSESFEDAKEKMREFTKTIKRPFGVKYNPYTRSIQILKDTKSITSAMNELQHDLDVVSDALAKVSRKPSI
Test: biochemical
In short: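 Inhibition is derived from 5-hydroxy-L-tryptophan fluorescence (540 nm emission, 300 nm excitation) after perchloric acid stop, relative to DMSO vehicle. Recombinant full-length human enzyme (40-80 nM) reacts with 40 μM tryptophan plus 100 μM methyltetrahydropterin, pH 7.6 Tris/DTT/catalase, 15° C, 60 min.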

SMILES | IC50 [nM]
COc1ccc(C2c3c(nc4cc(C(F)(F)F)ccn34)CCN2C(=O)COc2cccc(C(F)(F)F)c2)cc1OC (stereo not drawn) [Example 3.1.9] | 422
COc1ccc(C2c3c(nc4cc(C(F)(F)F)ccn34)CCN2C(=O)COc2ccc(OC(F)(F)F)cc2)cc1OC (stereo not drawn) [Example 3.1.11] | 199
COc1ccc(C2c3c(nc4cc(C(F)(F)F)ccn34)CCN2C(=O)COc2cc(C)ccc2Cl)cc1OC (stereo not drawn) [Example 3.1.12, 2-(2-chloro-5-methylphenoxy)-1-(1-(3,4-dimethoxyphenyl)-7-(trifluoromethyl)-3,4-dihydroimidazo[1,2-a:5,4-c′]dipyridin-2(1H)-yl)ethan-1-one] | 64
COc1ccc(C2c3c(nc4cc(C(F)(F)F)ccn34)CCN2C(=O)COc2cccc(C(F)(F)F)c2Cl)cc1OC (stereo not drawn) [Example 3.1.13, 2-(2-chloro-3-(trifluoromethyl)phenoxy)-1-(1-(3,4-dimethoxyphenyl)-7-(trifluoromethyl)-3,4-dihydroimidazo[1,2-a:5,4-c′]dipyridin-2(1H)-yl)ethan-1-one] | 19
COc1ccc(C2c3c(nc4cc(C(F)(F)F)ccn34)CCN2C(=O)COc2cc(F)ccc2Cl)cc1OC (stereo not drawn) [Example 3.1.14] | 103
COc1ccc(C2c3c(nc4cc(C(F)(F)F)ccn34)CCN2C(=O)COc2cccnc2Cl)cc1OC (stereo not drawn) [Example 3.1.15, 2-((2-chloropyridin-3-yl)oxy)-1-(1-(3,4-dimethoxyphenyl)-7-(trifluoromethyl)-3,4-dihydroimidazo[1,2-a:5,4-c′]dipyridin-2(1H)-yl)ethan-1-one] | 67
COc1ccc(C2c3c(nc4cc(C(F)(F)F)ccn34)CCN2C(=O)COc2cccnc2C)cc1OC (stereo not drawn) [Example 3.1.16] | 266
COc1ccc(C2c3c(nc4cc(C(F)(F)F)ccn34)CCN2C(=O)COc2cccnc2Br)cc1OC (stereo not drawn) [Example 3.1.17, 2-((2-bromopyridin-3-yl)oxy)-1-(1-(3,4-dimethoxyphenyl)-7-(trifluoromethyl)-3,4-dihydroimidazo[1,2-a:5,4-c′]dipyridin-2(1H)-yl)ethan-1-one] | 20
COc1ccc(C2c3c(nc4cc(C(F)(F)F)ccn34)CCN2C(=O)COc2cnccc2Cl)cc1OC (stereo not drawn) [Example 3.1.18] | 235
COc1ccc(C2c3c(nc4cc(C(F)(F)F)ccn34)CCN2C(=O)COc2ccc3ncccc3c2)cc1OC (stereo not drawn) [Example 3.1.19] | 117
COc1ccc(C2c3c(nc4cc(C(F)(F)F)ccn34)CCN2C(=O)COc2ccc3ccncc3c2)cc1OC (stereo not drawn) [Example 3.1.20, 1-(1-(3,4-dimethoxyphenyl)-7-(trifluoromethyl)-3,4-dihydroimidazo[1,2-a:5,4-c′]dipyridin-2(1H)-yl)-2-(isoquinolin-7-yloxy)ethan-1-one] | 19
COc1ccc(C2c3c(nc4cc(C(F)(F)F)ccn34)CCN2C(=O)COc2ccc3c(c2)OCO3)cc1OC (stereo not drawn) [Example 3.1.21] | 116
COc1ccc(C2c3c(nc4cc(C(F)(F)F)ccn34)CCN2C(=O)COc2cnc3ccccc3c2)cc1OC (stereo not drawn) [Example 3.1.22] | 165
COc1ccc(C2c3c(nc4cc(C(F)(F)F)ccn34)CCN2C(=O)COc2cnc3c(c2)ncn3C)cc1OC (stereo not drawn) [Example 3.1.23] | 382
COc1ccc(C2c3c(nc4cc(C(F)(F)F)ccn34)CCN2C(=O)COc2cc(-c3ccccc3)nn2C)cc1OC (stereo not drawn) [Example 3.1.24] | 157
COc1ccc(C2c3c(nc4cc(C(F)(F)F)ccn34)CCN2C(=O)COc2nn(C)c(C(F)(F)F)c2Cl)cc1OC (stereo not drawn) [Example 3.1.25, 2-((4-chloro-1-methyl-5-(trifluoromethyl)-1H-pyrazol-3-yl)oxy)-1-(1-(3,4-dimethoxyphenyl)-7-(trifluoromethyl)-3,4-dihydroimidazo[1,2-a:5,4-c′]dipyridin-2(1H)-yl)ethan-1-one] | 78
COc1ccc(C2c3c(nc4cc(C(F)(F)F)ccn34)CCN2C(=O)COc2ccc(CN3CCOCC3)cc2Cl)cc1OC (stereo not drawn) [Example 3.1.26, 2-(2-chloro-4-(morpholinomethyl)phenoxy)-1-(1-(3,4-dimethoxyphe-nyl)-7-(trifluoromethyl)-3,4-dihydroimidazo[1,2-a:5,4-c′]dipyridin-2(1H)-yl)ethan-1-one] | 17
COc1ccc(C2c3c(nc4cc(C(F)(F)F)ccn34)CCN2C(=O)COc2ccc(CN3CCOCC3)nc2Cl)cc1OC (stereo not drawn) [Example 3.1.27, 2-((2-chloro-6-(morpholinomethyl)pyridin-3-yl)oxy)-1-(1-(3,4-dimethoxyphenyl)-7-(trifluoromethyl)-3,4-dihydroimidazo[1,2-a:5,4-c′]dipyridin-2(1H)-yl)ethan-1-one] | 84
CCc1ccccc1OCC(=O)N1CCc2nc3cc(C(F)(F)F)ccn3c2C1c1ccc(OC)c(OC)c1 (stereo not drawn) [Example 3.1.28] | 118
CCc1cc(Cl)ccc1OCC(=O)N1CCc2nc3cc(C(F)(F)F)ccn3c2C1c1ccc(OC)c(OC)c1 (stereo not drawn) [Example 3.1.29, 2-(4-chloro-2-ethylphenoxy)-1-(1-(3,4-dimethoxyphenyl)-7-(trifluoromethyl)-3,4-dihydroimidazo[1,2-a:5,4-c′]dipyridin-2(1H)-yl)ethan-1-one] | 64
CCc1ncccc1OCC(=O)N1CCc2nc3cc(C(F)(F)F)ccn3c2C1c1ccc(OC)c(OC)c1 (stereo not drawn) [Example 3.1.30, 1-(1-(3,4-dimethoxyphenyl)-7-(trifluoromethyl)-3,4-dihydroimidazo[1,2-a:5,4-c′]dipyridin-2(1H)-yl)-2-((2-ethylpyridin-3-yl)oxy)ethan-1-one] | 36
CCc1cc(Br)ccc1OCC(=O)N1CCc2nc3cc(C(F)(F)F)ccn3c2C1c1ccc(OC)c(OC)c1 (stereo not drawn) [Example 3.1.31, 2-(4-bromo-2-ethylphenoxy)-1-(1-(3,4-dimethoxyphenyl)-7-(trifluoromethyl)-3,4-dihydroimidazo[1,2-a:5,4-c′]dipyridin-2(1H)-yl)ethan-1-one] | 43
CCc1cc(N2CCN(C)CC2)ccc1OCC(=O)N1CCc2nc3cc(C(F)(F)F)ccn3c2C1c1ccc(OC)c(OC)c1 (stereo not drawn) [Example 3.1.32, 1-(1-(3,4-dimethoxyphenyl)-7-(trifluoromethyl)-3,4-dihydroimidazo[1,2-a:5,4-c′]dipyridin-2(1H)-yl)-2-(2-ethyl-4-(4-methylpiperazin-1-yl)phenoxy)ethan-1-one] | 21
CCc1cc(N2CCOCC2)ccc1OCC(=O)N1CCc2nc3cc(C(F)(F)F)ccn3c2C1c1ccc(OC)c(OC)c1 (stereo not drawn) [Example 3.1.33, 1-(1-(3,4-dimethoxyphenyl)-7-(trifluoromethyl)-3,4-dihydroimidazo[1,2-a:5,4-c′]dipyridin-2(1H)-yl)-2-(2-ethyl-4-morpholinophenoxy)ethan-1-one] | 12
COc1ccc(C2c3c(nc4cc(C(F)(F)F)ccn34)CCN2C(=O)COc2cccnc2C2CC2)cc1OC (stereo not drawn) [Example 3.1.35] | 336
O=C(COc1ccc(CN2CCOCC2)cc1Cl)N1CCc2nc3cc(C(F)(F)F)ccn3c2C1c1cccnc1F (stereo not drawn) [Example 3.2.1, 2-(2-chloro-4-(morpholinomethyl)phenoxy)-1-(1-(2-fluoropyridin-3-yl)-7-(trifluoromethyl)-3,4-dihydroimidazo[1,2-a:5,4-c′]dipyridin-2(1H)-yl)ethan-1-one] | 43
O=C(COc1ccc2ccccc2c1)N1CCc2nc3cc(C(F)(F)F)ccn3c2C1c1cccnc1F (stereo not drawn) [Example 3.2.2, 1-(1-(2-fluoropyridin-3-yl)-7-(trifluoromethyl)-3,4-dihydroimidazo[1,2-a:5,4-c′]dipyridin-2(1H)-yl)-2-(naphthalen-2-yloxy)ethan-1-one] | 82
